# Reference: ChEMBL document CHEMBL3870329, “Synthesis of peptide nucleic acids (PNA) with a crosslinking agent to RNA and effective inhibition of dicer” (Bioorg Med Chem Lett, 2016)
# The source made the active and inactive calls. No cut-off for these calls is given here.
# Key:
# Nucleic Acid [1] = assay: Binding affinity to synthetic 5'-FAM-labelled pre-miR-122 RNA site3 (unknown origin) assessed as human dicer-mediated digestion of pre-miR-122 RNA preincubated with RNA for 2 days followed by dicer addition measured after 2 hrs by denaturing PAGE analysis; type: nucleic-acid assay
# Nucleic Acid [2] = assay: Binding affinity to synthetic 5'-FAM-labelled pre-miR-122 RNA site3 (unknown origin) assessed as inhibition of human dicer-mediated digestion of pre-miR-122 RNA by measuring heteroduplex formation preincubated with RNA for 2 days followed by dicer addition measured after 2 hrs by denaturing PAGE analysis relative to control; type: nucleic-acid assay; details: concentration not given here
# Nucleic Acid [3] = assay: Binding affinity to synthetic 5'-fluorescein-labelled pre-miR-122 RNA site3 (unknown origin) assessed as heteroduplex formation at 4 uM measured after 48 hrs by non-denaturing PAGE analysis relative to control; type: nucleic-acid assay
# Nucleic Acid [4] = assay: Binding affinity to synthetic 5'-FAM-labelled pre-miR-122 RNA site3 (unknown origin) assessed as heteroduplex formation at 4 uM measured after 2 hrs by denaturing PAGE analysis relative to control; type: nucleic-acid assay
# Nucleic Acid [5] = assay: Binding affinity to synthetic 5'-FAM-labelled pre-miR-122 RNA site1 (unknown origin) assessed as human dicer-mediated digestion of pre-miR-122 RNA preincubated with RNA for 2 days followed by dicer addition measured after 2 hrs by denaturing PAGE analysis; type: nucleic-acid assay
# Nucleic Acid [6] = assay: Binding affinity to synthetic 5'-FAM-labelled pre-miR-122 RNA site1 (unknown origin) assessed as heteroduplex formation at 4 uM measured after 2 hrs by denaturing PAGE analysis relative to control; type: nucleic-acid assay
# Nucleic Acid [7] = assay: Binding affinity to synthetic 5'-FAM-labelled pre-miR-122 RNA site1 (unknown origin) assessed as inhibition of human dicer-mediated digestion of pre-miR-122 RNA preincubated with RNA for 2 days followed by dicer addition measured after 2 hrs by denaturing PAGE analysis relative to control; type: nucleic-acid assay; details: concentration not given here
# Nucleic Acid [8] = assay: Binding affinity to synthetic 5'-fluorescein-labelled pre-miR-122 RNA site1 (unknown origin) assessed as heteroduplex formation at 4 uM measured after 48 hrs by non-denaturing PAGE analysis relative to control; type: nucleic-acid assay
# unidentified [9] = assay: Binding affinity to 5'-end FAM-tagged GACTCAATCCCAATCTGGTT DNA (unknown origin) assessed as melting temperature at 1.5 uM measured after 5 mins by UV spectrophotometry (reference value: 79.2 degC)
# [10] = Binding affinity to 5'-end FAM-tagged GACTCAATCCCAATCTGGTT DNA (unknown origin) assessed as crosslinked adduct formation by MALDI-TOF MS analysis
# unidentified [11] = assay: Binding affinity to 5'-end FAM-tagged GACUCAAUCCCAAUCUGGUU RNA (unknown origin) assessed as melting temperature at 1.5 uM measured after 5 mins by UV spectrophotometry (reference value: 82.2 degC)
# Nucleic Acid [12] = assay: Binding affinity to 5'-end FAM-tagged GACACAAUCCCAAUCUGGUU RNA (unknown origin) assessed as induction of crosslinking by measuring heteroduplex formation at 4 uM measured after 24 hrs by bromophenol blue staining-based denaturing PAGE analysis relative to control; type: nucleic-acid assay
# Nucleic Acid [13] = assay: Binding affinity to 5'-end FAM-tagged GACGCAAUCCCAAUCUGGUU RNA (unknown origin) assessed as induction of crosslinking by measuring heteroduplex formation at 4 uM measured after 24 hrs by bromophenol blue staining-based denaturing PAGE analysis relative to control; type: nucleic-acid assay
# Nucleic Acid [14] = assay: Binding affinity to 5'-end FAM-tagged GACTCAATCCCAATCTGGTT DNA (unknown origin) assessed as induction of crosslinking by measuring heteroduplex formation at 4 uM measured after 24 hrs by bromophenol blue staining-based denaturing PAGE analysis relative to control; type: nucleic-acid assay
# Nucleic Acid [15] = assay: Binding affinity to 5'-end FAM-tagged GACCCAAUCCCAAUCUGGUU RNA (unknown origin) assessed as induction of crosslinking by measuring heteroduplex formation at 4 uM measured after 24 hrs by bromophenol blue staining-based denaturing PAGE analysis relative to control; type: nucleic-acid assay
# Nucleic Acid [16] = assay: Binding affinity to 5'-end FAM-tagged GACCCAATCCCAATCTGGTT DNA (unknown origin) assessed as induction of crosslinking by measuring heteroduplex formation at 4 uM measured after 24 hrs by bromophenol blue staining-based denaturing PAGE analysis relative to control; type: nucleic-acid assay
# Nucleic Acid [17] = assay: Binding affinity to 5'-end FAM-tagged GACACAATCCCAATCTGGTT DNA (unknown origin) assessed as induction of crosslinking by measuring heteroduplex formation at 4 uM measured after 24 hrs by bromophenol blue staining-based denaturing PAGE analysis relative to control; type: nucleic-acid assay
# Nucleic Acid [18] = assay: Binding affinity to 5'-end FAM-tagged GACUCAAUCCCAAUCUGGUU RNA (unknown origin) assessed as induction of crosslinking by measuring heteroduplex formation at 4 uM measured after 24 hrs by bromophenol blue staining-based denaturing PAGE analysis relative to control; type: nucleic-acid assay
# Nucleic Acid [19] = assay: Binding affinity to 5'-end FAM-tagged GACGCAATCCCAATCTGGTT DNA (unknown origin) assessed as induction of crosslinking by measuring heteroduplex formation at 4 uM measured after 24 hrs by bromophenol blue staining-based denaturing PAGE analysis relative to control; type: nucleic-acid assay
# Nucleic Acid [20] = assay: Binding affinity to synthetic 5'-FAM-labelled pre-miR-122 RNA site2 (unknown origin) assessed as human dicer-mediated digestion of pre-miR-122 RNA preincubated with RNA for 2 days followed by dicer addition measured after 2 hrs by denaturing PAGE analysis; type: nucleic-acid assay
# Nucleic Acid [21] = assay: Binding affinity to synthetic 5'-fluorescein-labelled pre-miR-122 RNA site2 (unknown origin) assessed as heteroduplex formation at 4 uM measured after 48 hrs by non-denaturing PAGE analysis relative to control; type: nucleic-acid assay
# Nucleic Acid [22] = assay: Binding affinity to synthetic 5'-FAM-labelled pre-miR-122 RNA site2 (unknown origin) assessed as inhibition of human dicer-mediated digestion of pre-miR-122 RNA preincubated with RNA for 2 days followed by dicer addition measured after 2 hrs by denaturing PAGE analysis relative to control; type: nucleic-acid assay; details: concentration not given here
# Nucleic Acid [23] = assay: Binding affinity to synthetic 5'-FAM-labelled pre-miR-122 RNA site2 (unknown origin) assessed as heteroduplex formation at 4 uM measured after 2 hrs by denaturing PAGE analysis relative to control; type: nucleic-acid assay
# [24] = Binding affinity to 5'-end FAM-tagged GACCAAACCCAATCTGGTT DNA (unknown origin) assessed as change in melting temperature at 1.5 uM measured after 5 mins by UV spectrophotometry
# [25] = Binding affinity to 5'-end FAM-tagged GACCAATCCCAATCTGGTT DNA (unknown origin) assessed as change in melting temperature at 1.5 uM measured after 5 mins by UV spectrophotometry
# [26] = Binding affinity to 5'-end FAM-tagged GACCAACCCCAAUCUGGUU RNA (unknown origin) assessed as change in melting temperature at 1.5 uM measured after 5 mins by UV spectrophotometry
# [27] = Binding affinity to 5'-end FAM-tagged GACCAACCCCAATCTGGTT DNA (unknown origin) assessed as change in melting temperature at 1.5 uM measured after 5 mins by UV spectrophotometry
# [28] = Binding affinity to 5'-end FAM-tagged GACCAAUCCCAAUCUGGUU RNA (unknown origin) assessed as change in melting temperature at 1.5 uM measured after 5 mins by UV spectrophotometry
# [29] = Binding affinity to 5'-end FAM-tagged GACCAAGCCCAATCTGGTT DNA (unknown origin) assessed as change in melting temperature at 1.5 uM measured after 5 mins by UV spectrophotometry
# [30] = Binding affinity to 5'-end FAM-tagged GACCAAACCCAAUCUGGUU RNA (unknown origin) assessed as change in melting temperature at 1.5 uM measured after 5 mins by UV spectrophotometry
# [31] = Binding affinity to 5'-end FAM-tagged GACCAAGCCCAAUCUGGUU RNA (unknown origin) assessed as change in melting temperature at 1.5 uM measured after 5 mins by UV spectrophotometry
structure (smiles),measurement,setting,value
C=Cc1nc(N)nc2c1ncn2CC(=O)N(CCN)CC(=O)NCCN(CC(=O)NCCN(CC(=O)NCCN(CC(=O)NCCN(CC(=O)NCCN(CC(=O)NCCN(CC(=O)NCCN(CC(=O)NCCN(CC(=O)NCCN(CC(=O)NCCN(CC(=O)NCCN(CC(=O)NCCN(CC(=O)N[C@@H](CCCNC(=N)N)C(=O)O)C(=O)Cn1ccc(N)nc1=O)C(=O)Cn1cnc2c(N)ncnc21)C(=O)Cn1ccc(N)nc1=O)C(=O)Cn1cnc2c(N)ncnc21)C(=O)Cn1cnc2c(=O)[nH]c(N)nc21)C(=O)Cn1cnc2c(N)ncnc21)C(=O)Cn1cc(C)c(=O)[nH]c1=O)C(=O)Cn1cc(C)c(=O)[nH]c1=O)C(=O)Cn1cc(C)c(=O)[nH]c1=O)C(=O)Cn1cnc2c(=O)[nH]c(N)nc21)C(=O)Cn1cnc2c(N)ncnc21)C(=O)Cn1cc(C)c(=O)[nH]c1=O,Activity,Nucleic Acid [1],24%
same,inhibition,Nucleic Acid [2],76%
same,Activity,Nucleic Acid [3],85%
same,Activity,Nucleic Acid [4],72%
C=Cc1nc(N)nc2c1ncn2CC(=O)N(CCN)CC(=O)NCCN(CC(=O)NCCN(CC(=O)NCCN(CC(=O)NCCN(CC(=O)NCCN(CC(=O)NCCN(CC(=O)NCCN(CC(=O)NCCN(CC(=O)NCCN(CC(=O)NCCN(CC(=O)NCCN(CC(=O)NCCN(CC(=O)N[C@@H](CCCNC(=N)N)C(=O)O)C(=O)Cn1cnc2c(N)ncnc21)C(=O)Cn1cc(C)c(=O)[nH]c1=O)C(=O)Cn1cnc2c(N)ncnc21)C(=O)Cn1cnc2c(=O)[nH]c(N)nc21)C(=O)Cn1cc(C)c(=O)[nH]c1=O)C(=O)Cn1cc(C)c(=O)[nH]c1=O)C(=O)Cn1cc(C)c(=O)[nH]c1=O)C(=O)Cn1cnc2c(=O)[nH]c(N)nc21)C(=O)Cn1ccc(N)nc1=O)C(=O)Cn1cnc2c(=O)[nH]c(N)nc21)C(=O)Cn1cnc2c(=O)[nH]c(N)nc21)C(=O)Cn1cc(C)c(=O)[nH]c1=O,Activity,Nucleic Acid [5],90%
same,Activity,Nucleic Acid [6],8%
same,inhibition,Nucleic Acid [7],10%
same,Activity,Nucleic Acid [8],10%
C=Cc1nc(N)nc2c1ncn2CC(=O)N(CCNC(C)=O)CC(=O)NCCN(CC(=O)NCCN(CC(=O)NCCN(CC(=O)NCCN(CC(=O)NCCN(CC(=O)NCCN(CC(=O)NCCN(CC(=O)NCCN(CC(=O)NCCN(CC(=O)NCCN(CC(=O)NCCN(CC(=O)N[C@@H](CCCNC(=N)N)C(=O)N[C@@H](CCCNC(=N)N)C(=O)NCC(N)=O)C(=O)Cn1cnc2c(=O)[nH]c(N)nc21)C(=O)Cn1cnc2c(N)ncnc21)C(=O)Cn1cc(C)c(=O)[nH]c1=O)C(=O)Cn1cc(C)c(=O)[nH]c1=O)C(=O)Cn1cnc2c(=O)[nH]c(N)nc21)C(=O)Cn1cnc2c(=O)[nH]c(N)nc21)C(=O)Cn1cnc2c(=O)[nH]c(N)nc21)C(=O)Cn1cnc2c(N)ncnc21)C(=O)Cn1cc(C)c(=O)[nH]c1=O)C(=O)Cn1cc(C)c(=O)[nH]c1=O)C(=O)Cn1cnc2c(=O)[nH]c(N)nc21,Tm,unidentified [9],80.3 °C
same,Activity,[10],Active
same,Tm,unidentified [11],84.5 °C
same,Activity,Nucleic Acid [12],0%
same,Activity,Nucleic Acid [13],2%
same,Activity,Nucleic Acid [14],52%
same,Activity,Nucleic Acid [15],2%
same,Activity,Nucleic Acid [16],2%
same,Activity,Nucleic Acid [17],1%
same,Activity,Nucleic Acid [18],62%
same,Activity,Nucleic Acid [19],3%
C=Cc1nc(N)nc2c1ncn2CC(=O)N(CCN)CC(=O)NCCN(CC(=O)NCCN(CC(=O)NCCN(CC(=O)NCCN(CC(=O)NCCN(CC(=O)NCCN(CC(=O)NCCN(CC(=O)NCCN(CC(=O)NCCN(CC(=O)NCCN(CC(=O)NCCN(CC(=O)NCCN(CC(=O)N[C@@H](CCCNC(=N)N)C(=O)O)C(=O)Cn1ccc(N)nc1=O)C(=O)Cn1ccc(N)nc1=O)C(=O)Cn1cc(C)c(=O)[nH]c1=O)C(=O)Cn1ccc(N)nc1=O)C(=O)Cn1cnc2c(N)ncnc21)C(=O)Cn1ccc(N)nc1=O)C(=O)Cn1cnc2c(N)ncnc21)C(=O)Cn1ccc(N)nc1=O)C(=O)Cn1cc(C)c(=O)[nH]c1=O)C(=O)Cn1cnc2c(=O)[nH]c(N)nc21)C(=O)Cn1cc(C)c(=O)[nH]c1=O)C(=O)Cn1cc(C)c(=O)[nH]c1=O,Activity,Nucleic Acid [20],59%
same,Activity,Nucleic Acid [21],41%
same,inhibition,Nucleic Acid [22],41%
same,Activity,Nucleic Acid [23],15%
CSCCc1nc(N)nc2c1ncn2CC(=O)N(CCNC(=O)CN(CCNC(=O)CN(CCNC(=O)CN(CCNC(C)=O)C(=O)Cn1cnc2c(=O)[nH]c(N)nc21)C(=O)Cn1cc(C)c(=O)[nH]c1=O)C(=O)Cn1cc(C)c(=O)[nH]c1=O)CC(=O)NCCN(CC(=O)NCCN(CC(=O)NCCN(CC(=O)NCCN(CC(=O)NCCN(CC(=O)NCCN(CC(=O)NCCN(CC(=O)N[C@@H](CCCNC(=N)N)C(=O)N[C@@H](CCCNC(=N)N)C(=O)NCC(N)=O)C(=O)Cn1cnc2c(=O)[nH]c(N)nc21)C(=O)Cn1cnc2c(N)ncnc21)C(=O)Cn1cc(C)c(=O)[nH]c1=O)C(=O)Cn1cc(C)c(=O)[nH]c1=O)C(=O)Cn1cnc2c(=O)[nH]c(N)nc21)C(=O)Cn1cnc2c(=O)[nH]c(N)nc21)C(=O)Cn1cnc2c(=O)[nH]c(N)nc21,ΔTm,[24],-10.6 °C
same,ΔTm,[25],-9.9 °C
same,ΔTm,[26],-6.1 °C
same,ΔTm,[27],-10.3 °C
same,ΔTm,[28],-5.9 °C
same,ΔTm,[29],-11 °C
same,ΔTm,[30],-10.1 °C
same,ΔTm,[31],-11 °C
